Assay results reported in patent US8623853B2, “Treatment of cancers characterized by chromosomal rearrangement of the NUT gene” (The Brigham and Women's Hospital, Inc., priority 2008, dated 2014).

Tests used:
NMC cells = experiment: TSA dose- and time-ranging studies in cultured NMC cells (immunofluorescence, bright-field microscopy, keratin immunohistochemistry); format: cell-based
Experimental: Studies aimed at testing the hypothesis of HDAC inhibitor therapy in NMC have been conducted using trichostatin A (TSA), and vorinostat (SAHA, Zolinza®). Both of these compounds are regarded as non-selective for class I and II deacetylases and bind HDAC proteins by chelating the active site zinc atom with a hydroxamic acid feature. NMC cells cultured in vitro were treated with TSA in dose- and time-ranging studies. […] With further drug exposure, a differentiation phenotype was observed by bright-field microscopy and by immunohistochemistry for the epithelial differentiation-associated protein, keratin.

[1] = pharmacologically achievable range; cited from earlier work
NMC (TC797) cells = experiment: High-content 384-well assay of proliferation, histone acetylation and keratin expression adapted to NMC culture; format: cell-based
Experimental: A cell based approach was developed for identifying potent and selective HDAC inhibitors. Nuclear acetylation correlates with inhibition of class I deacetylases such as HDAC1 and HDAC2. An automated epiflourescent assay was therefore developed which is measures histone hyperacetylation. Cells were seeded in 384-well plate format (500 cells/well) and treated with compound. They were then fixed and stained with: a) Hoechst (nuclei); b) primary anti-AcHistone polyclonal Ab; c) anti-Keratin monoclonal antibody; and d) compatible flurophore-conjugated secondary antibodies. After automated image acquisition, a custom analysis program was applied that identifies and masks cells based on nuclear intensity (Hoechst) and then derives quantitative fluorescent data from the FITC (AcHistone) image. Subsequent secondary masks were generated using cytosolic intensity.
We have performed studies of HDAC inhibitor effects on NMC cells in culture using an adaptation of the assay described above. […] In a first attempt at multiplexed detection and quantification of effects on cell proliferation, histone acetylation, and keratin protein expression, we have witnessed clear, dose-response activity of SAHA in the pharmacologically achievable range (Cmax approximately 2 μM).

NMC cell lines = experiment: SAHA treatment of five NMC cell lines; format: cell-based; details: pharmacologic doses

For `CC(/C=C/C(=O)NO)=C\[C@@H](C)C(=O)c1ccc(N(C)C)cc1` [TSA, trichostatin A], which “differentiation by brightfield microscopy” value (NMC cells; TSA 25 nM, within 24 hours) is on record?
The value was “rapidly differentiate”.

And the “distribution of BRD-NUT and acetylation marks” value (NMC cells; immunofluorescence microscopy)?
Its value is “redistribution of both BRD-NUT and acetylation marks from nuclear speckles to a diffuse pattern”.

And the histone acetylation (NMC cells; immunofluorescence microscopy, dose- and time-ranging)?
Its histone acetylation is “increase in histone acetylation with increasing dose and time of exposure”.

What about the cytoplasmic keratin staining (NMC cells; immunohistochemistry) of the same compound?
Its cytoplasmic keratin staining is “increases in cytoplasmic keratin staining”.

Which Cmax [1] does the source give for `O=C(CCCCCCC(=O)Nc1ccccc1)NO` [SAHA, suberoylanilide hydroxamic acid] here?
Its Cmax is ~2000 nM.

And the histone acetylation (NMC (TC797) cells; dose-ranging, qualitative in images)?
The histone acetylation was “increased histone acetylation”.

What about the cell proliferation (NMC (TC797) cells; multiplexed detection) of the same compound?
Its cell proliferation is “reduction in cell proliferation”.

What about the keratin protein content (NMC (TC797) cells; multiplexed detection) of the same compound?
Its keratin protein content is “induction of increased keratin protein content”.

What about the differentiation (NMC cell lines) of the same compound?
Its differentiation is “resulted in differentiation”.

What about the growth (NMC cell lines) of the same compound?
The growth was “arrested growth”.
